Measurements as given in patent US20050282755A1, “Compositions having antimicrobial activity and uses thereof” (priority 2004, published 2005).
In brackets after ≈: the same amount, converted by molar mass. Residues, ends and D or L forms follow the SMILES beside them.

What was measured:
[1] = tested on: Staphylococcus aureus ATCC 29213; test: MIC, NCCLS M7-A6 broth microdilution, cation-adjusted Mueller Hinton broth (Table 9, no superscript); assay type: cell-based; conditions: ATCC 29213
Experimental: (§1) Cation-adjusted Mueller Hinton broth was used in the broth microdilution method. In brief, a log-phase bacterial suspension was used to inoculate wells of a 96-well plate so that the final inoculum for each well contained 5×10^5 to 1×10^6 CFU/milliliter. […] Plates were incubated overnight at 37° C. The lowest concentration of peptide that contained no visible growth as evidenced by a lack of turbidity when compared to the control (no peptide) was determined as the MIC. Unless otherwise noted, MIC values listed in Table 9 utilized this method of MIC determination.

Salmonella dublin (Lane) = test: MIC, NCCLS M7-A6 broth microdilution (Table 9, no superscript); assay type: cell-based
Experimental: as §1

MIC S. aureus [1] | MIC S. dublin (Salmonella dublin (Lane)) | SMILES
>64 µg/mL | >64 µg/mL | CSCC[C@H](NC(=O)[C@H](Cc1ccccc1)NC(=O)[C@H](CC(N)=O)NC(=O)[C@H](CCCNC(=N)N)NC(=O)[C@H](CO)NC(=O)[C@H](Cc1c[nH]c2ccccc12)NC(=O)[C@H](CC(=O)O)NC(=O)[C@H](CCCNC(=N)N)NC(=O)[C@H](Cc1c[nH]c2ccccc12)NC(=O)[C@H](CCCNC(=N)N)NC(=O)[C@H](CO)NC(=O)[C@H](CCCNC(=N)N)NC(=O)CNC(=O)[C@@H](NC(=O)[C@H](CCCNC(=N)N)NC(=O)[C@H](CO)NC(=O)[C@@H](NC(=O)[C@H](CCCNC(=N)N)NC(=O)[C@@H](NC(C)=O)[C@@H](C)O)C(C)C)[C@@H](C)O)C(=O)N[C@@H](CCCNC(=N)N)C(=O)N[C@@H](C)C(=O)N[C@@H](C)C(=O)N[C@@H](CCCCN)C(=O)N[C@@H](CCCCN)C(=O)N[C@@H](CCCCN)C(=O)N[C@@H](CCCCN)C(N)=O [Peptide 5] (Ac-TRVSRTGRSRWRDWSRNFMRAAKKKK-NH2)
>64 µg/mL | >64 µg/mL | CSCC[C@H](NC(=O)[C@H](Cc1ccccc1)NC(=O)[C@H](CC(N)=O)NC(=O)[C@H](CCCNC(=N)N)NC(=O)[C@H](CO)NC(=O)[C@H](Cc1c[nH]c2ccccc12)NC(=O)[C@H](CC(=O)O)NC(=O)[C@H](CCCNC(=N)N)NC(=O)[C@H](Cc1c[nH]c2ccccc12)NC(=O)[C@H](CCCNC(=N)N)NC(=O)[C@H](CO)NC(=O)[C@H](CCCNC(=N)N)NC(=O)CNC(=O)[C@@H](NC(=O)[C@H](CCCNC(=N)N)NC(=O)[C@H](CO)NC(=O)[C@@H](NC(=O)[C@H](CCCNC(=N)N)NC(=O)[C@@H](NC(C)=O)[C@@H](C)O)C(C)C)[C@@H](C)O)C(=O)N[C@@H](CCCNC(=N)N)C(=O)N[C@@H](C)C(=O)N[C@@H](C)C(=O)N[C@@H](CCCCN)C(=O)N[C@@H](CCCCN)C(=O)N[C@@H](CCCCN)C(=O)N[C@@H](CCCCN)C(=O)N[C@@H](CCCCN)C(N)=O [Peptide 6] (Ac-TRVSRTGRSRWRDWSRNFMRAAKKKKK-NH2)
>64 µg/mL | >64 µg/mL | CSCC[C@H](NC(=O)[C@H](Cc1ccccc1)NC(=O)[C@H](CC(N)=O)NC(=O)[C@H](CCCNC(=N)N)NC(=O)[C@H](CO)NC(=O)[C@H](Cc1c[nH]c2ccccc12)NC(=O)[C@H](CC(=O)O)NC(=O)[C@H](CCCNC(=N)N)NC(=O)[C@H](Cc1c[nH]c2ccccc12)NC(=O)[C@H](CCCNC(=N)N)NC(=O)[C@H](CO)NC(=O)[C@H](CCCNC(=N)N)NC(=O)CNC(=O)[C@@H](NC(=O)[C@H](CCCNC(=N)N)NC(=O)[C@H](CO)NC(=O)[C@@H](NC(=O)[C@H](CCCNC(=N)N)NC(=O)[C@@H](NC(C)=O)[C@@H](C)O)C(C)C)[C@@H](C)O)C(=O)N[C@@H](CCCNC(=N)N)C(=O)N[C@@H](C)C(=O)N[C@@H](C)C(=O)N[C@@H](CCCCN)C(=O)N[C@@H](CCCCN)C(=O)N[C@@H](CCCCN)C(=O)N[C@@H](CCCCN)C(=O)N[C@@H](CCCCN)C(=O)N[C@@H](CCCCN)C(N)=O [Peptide 7] (Ac-TRVSRTGRSRWRDWSRNFMRAAKKKKKK-NH2)
>64 µg/mL | >64 µg/mL | CSCC[C@H](NC(=O)[C@H](Cc1ccccc1)NC(=O)[C@H](CC(N)=O)NC(=O)[C@H](CCCNC(=N)N)NC(=O)[C@H](CO)NC(=O)[C@H](Cc1c[nH]c2ccccc12)NC(=O)[C@H](CC(=O)O)NC(=O)[C@H](CCCNC(=N)N)NC(=O)[C@H](Cc1c[nH]c2ccccc12)NC(=O)[C@H](CCCNC(=N)N)NC(=O)[C@H](CO)NC(=O)[C@H](CCCNC(=N)N)NC(=O)CNC(=O)[C@@H](NC(=O)[C@H](CCCNC(=N)N)NC(=O)[C@H](CO)NC(=O)[C@@H](NC(=O)[C@H](CCCNC(=N)N)NC(=O)[C@@H](NC(=O)[C@H](C)NC(=O)[C@H](C)NC(=O)[C@H](CCCCN)NC(=O)[C@H](CCCCN)NC(=O)[C@H](CCCCN)NC(=O)[C@H](CCCCN)NC(C)=O)[C@@H](C)O)C(C)C)[C@@H](C)O)C(=O)N[C@@H](CCCNC(=N)N)C(=O)N[C@@H](C)C(=O)N[C@@H](C)C(=O)N[C@@H](CCCCN)C(=O)N[C@@H](CCCCN)C(=O)N[C@@H](CCCCN)C(=O)N[C@@H](CCCCN)C(N)=O [Peptide 8] (Ac-KKKKAATRVSRTGRSRWRDWSRNFMRAAKKKK-NH2)
>64 µg/mL | >64 µg/mL | CSCC[C@H](NC(=O)[C@H](Cc1ccccc1)NC(=O)[C@H](CC(N)=O)NC(=O)[C@H](CCCNC(=N)N)NC(=O)[C@H](CO)NC(=O)[C@H](Cc1c[nH]c2ccccc12)NC(=O)[C@H](CC(=O)O)NC(=O)[C@H](CCCNC(=N)N)NC(=O)[C@H](Cc1c[nH]c2ccccc12)NC(=O)[C@H](CCCNC(=N)N)NC(=O)[C@H](CO)NC(=O)[C@H](CCCNC(=N)N)NC(=O)CNC(=O)[C@@H](NC(=O)[C@H](CCCNC(=N)N)NC(=O)[C@H](CO)NC(=O)[C@@H](NC(=O)[C@H](CCCNC(=N)N)NC(=O)[C@@H](NC(C)=O)[C@@H](C)O)C(C)C)[C@@H](C)O)C(=O)N[C@@H](CCCNC(=N)N)C(=O)N[C@@H](C)C(=O)N[C@@H](C)C(=O)N[C@@H](CCCNC(=N)N)C(=O)N[C@@H](CCCNC(=N)N)C(=O)N[C@@H](CCCNC(=N)N)C(=O)N[C@@H](CCCNC(=N)N)C(N)=O [Peptide 9] (Ac-TRVSRTGRSRWRDWSRNFMRAARRRR-NH2)
>64 µg/mL | 64 µg/mL (≈ 17.9 µM) | CSCC[C@H](NC(=O)[C@H](Cc1ccccc1)NC(=O)[C@H](CC(N)=O)NC(=O)[C@H](CCCNC(=N)N)NC(=O)[C@H](CO)NC(=O)[C@H](Cc1c[nH]c2ccccc12)NC(=O)[C@H](CC(=O)O)NC(=O)[C@H](CCCNC(=N)N)NC(=O)[C@H](Cc1c[nH]c2ccccc12)NC(=O)[C@H](CCCNC(=N)N)NC(=O)[C@H](CO)NC(=O)[C@H](CCCNC(=N)N)NC(=O)CNC(=O)[C@@H](NC(=O)[C@H](CCCNC(=N)N)NC(=O)[C@H](CO)NC(=O)[C@@H](NC(=O)[C@H](CCCNC(=N)N)NC(=O)[C@@H](NC(C)=O)[C@@H](C)O)C(C)C)[C@@H](C)O)C(=O)N[C@@H](CCCNC(=N)N)C(=O)N[C@@H](C)C(=O)N[C@@H](C)C(=O)N[C@@H](CCCNC(=N)N)C(=O)N[C@@H](CCCNC(=N)N)C(=O)N[C@@H](CCCNC(=N)N)C(=O)N[C@@H](CCCNC(=N)N)C(=O)N[C@@H](CCCNC(=N)N)C(N)=O [Peptide 10] (Ac-TRVSRTGRSRWRDWSRNFMRAARRRRR-NH2)
64 µg/mL (≈ 17.2 µM) | 32 µg/mL (≈ 8.58 µM) | CSCC[C@H](NC(=O)[C@H](Cc1ccccc1)NC(=O)[C@H](CC(N)=O)NC(=O)[C@H](CCCNC(=N)N)NC(=O)[C@H](CO)NC(=O)[C@H](Cc1c[nH]c2ccccc12)NC(=O)[C@H](CC(=O)O)NC(=O)[C@H](CCCNC(=N)N)NC(=O)[C@H](Cc1c[nH]c2ccccc12)NC(=O)[C@H](CCCNC(=N)N)NC(=O)[C@H](CO)NC(=O)[C@H](CCCNC(=N)N)NC(=O)CNC(=O)[C@@H](NC(=O)[C@H](CCCNC(=N)N)NC(=O)[C@H](CO)NC(=O)[C@@H](NC(=O)[C@H](CCCNC(=N)N)NC(=O)[C@@H](NC(C)=O)[C@@H](C)O)C(C)C)[C@@H](C)O)C(=O)N[C@@H](CCCNC(=N)N)C(=O)N[C@@H](C)C(=O)N[C@@H](C)C(=O)N[C@@H](CCCNC(=N)N)C(=O)N[C@@H](CCCNC(=N)N)C(=O)N[C@@H](CCCNC(=N)N)C(=O)N[C@@H](CCCNC(=N)N)C(=O)N[C@@H](CCCNC(=N)N)C(=O)N[C@@H](CCCNC(=N)N)C(N)=O [Peptide 11] (Ac-TRVSRTGRSRWRDWSRNFMRAARRRRRR-NH2)
